In patent US20240238268A1, “TREATMENTS AND METHODS FOR TREATING ALZHEIMER'S DISEASE” (Board of Supervisors of Louisiana State University and …, priority 2021, published 2024):

Key:
GFAP = GFAP protein level in brain, capillary-based immunoassay; type: in vivo, mouse; settings: aged 3xTg-AD female mice; TP-064 30 mg/kg, 7 days, IP or PRMT4-AAV
Description: Leukocytes velocity measurements were performed by linescans (512 lines/sec). *p<0.05 compared to aged 3xTg-AD male or C57 female evaluated by unpaired t-test. FIGS. 18A and 18B are capillary-based immunoassay and associated graphs showing PRMT4 inhibitor (TP-064) or AAV knockdown of PRMT4 reduced GFAP levels in aged 3xTg-AD female mice. Glial fibrillary acidic protein (GFAP, 55 kDa) was increased in aged 3xTg-AD female mice v. C57, which indicates neuroinflammation, but reversed with TP-064 (30 mg/kg, 7 days, IP) or PRMT4-AAV treatment in cortex, shown in FIG. 18A, and hippocampus, shown in FIG. 18B. Protein level was measured by capillary-based immunoassay and normalized to total protein. *p<0.05 as compared to C57, #p<0.05 v. 3xTg-AD evaluated by one-way ANOVA with Tukey's post-hoc analyses.
Capillary-phoresis immunoassay via ProteinSimple®: Quantification of all protein targets was achieved using Simple Western analysis in a Jess™ apparatus per the manufacturer's protocol (ProteinSimple, Bio-techne, Minneapolis, MN). […] Following homogenization and centrifugation (10,000×g, 5 min, 4° C.), protein concentration was determined in tissue protein supernatant samples using DC Protein Assay (Cat. No. 5000112, Bio-Rad Laboratories, Hercules, California) according to manufacturer instructions. […]

NOTCH1 = NOTCH1 protein level in brain, capillary-based immunoassay; type: in vivo, mouse; settings: aged 3xTg-AD female mice; TP-064 30 mg/kg, 7 days, IP or AAV knockdown
Description: NOTCH1 protein level in cortex, FIG. 13A, and hippocampus, FIG. 13B, was decreased in aged 3xTg-AD female mice v. male counterparts. Treatment with specific PRMT4 specific inhibitor (TP-064, 30 mg/kg, 7 days, IP) or AAV knockdown of PRMT4 enhanced NOTCH1 protein level in cortex, […], and hippocampus, […], in aged 3xTg-AD female mice. Relative NOTCH1 protein (˜110 kDa) level was measured by capillary-based immunoassay and normalized to total protein. * p<0.05 v. control male mice evaluated by unpaired t-test in FIGS. 13A and 13B. * p<0.05 compared to C57, #p<0.05 compared to 3xTg-AD+TP-064, $p<0.05 compared to 3xTg-AD+AAV, evaluated by one-way ANOVA with Tukey's post-hoc analyses in FIGS. 13C and 13D.
FIGS. 16A-16G show NOTCH1 inhibition (via crenigacestat) decreased ZO-1 and occluding and AAV knockdown of PRMT4 enhanced ZO-1 and occludin. […] C57 female mice. FIGS. 16B and 16C show crenigacestat (10 mg/kg, IP, 7 days) reduced NOTCH1 (110 kDa) protein level in the cortex and hippocampus of aged C57 female mice. AAV knockdown of PRMT4 increased NOTCH1 protein level. FIGS. 16D-16G show ZO-1 (220 kDa), and occludin (60 kDa) tight junctional proteins were decreased in the cortex and hippocampus in presence of NOTCH1 inhibitor in C57. PRMT4-AAV increased the expression of ZO-1 and occludin in aged 3xTg-AD female mice. Protein level was measured by capillary-based immunoassay and normalized to total protein. * p<0.05 compared to C57, #p<0.05 compared to 3xTg-AD, $p<0.05 compared to 3xTg-AD+AAV as evaluated by one-way ANOVA with Tukey's post-hoc analyses.
Capillary-phoresis immunoassay via ProteinSimple®: Quantification of all protein targets was achieved using Simple Western analysis in a Jess™ apparatus per the manufacturer's protocol (ProteinSimple, Bio-techne, Minneapolis, MN). […] Following homogenization and centrifugation (10,000×g, 5 min, 4° C.), protein concentration was determined in tissue protein supernatant samples using DC Protein Assay (Cat. No. 5000112, Bio-Rad Laboratories, Hercules, California) according to manufacturer instructions. […] Antibody diluent (ProteinSimple, Bio-techne, Minneapolis, MN) was used for all antibody dilutions as follows: PRMT4 (1:50, RRID: AB_2068436), PRMT6 (1:100, Cell Signaling Technology cat. 14641), eNOS (1:200, RRID: AB_10850618), nNOS (1:100, RRID: AB_2152488), iNOS (1:100, RRID: AB_10000625), DDAH2 (1:50, RRID: AB_2640442) Antibodies were detected using HRP-conjugated secondary anti-rabbit, and -mouse. Relative protein levels were calculated by measuring the area under the peak of a chemiluminescent chromatogram and normalized to total capillary chemiluminescence for a given sample. […]

[1] = system: methylation of H3 (1-25) and MED12; settings: in cell; cited from earlier work
PRMT4 = PRMT4 (Homo sapiens, UniProt Q86X55); settings: cited from earlier work
Sequence of PRMT4 (Q86X55 whole entry, species assumed): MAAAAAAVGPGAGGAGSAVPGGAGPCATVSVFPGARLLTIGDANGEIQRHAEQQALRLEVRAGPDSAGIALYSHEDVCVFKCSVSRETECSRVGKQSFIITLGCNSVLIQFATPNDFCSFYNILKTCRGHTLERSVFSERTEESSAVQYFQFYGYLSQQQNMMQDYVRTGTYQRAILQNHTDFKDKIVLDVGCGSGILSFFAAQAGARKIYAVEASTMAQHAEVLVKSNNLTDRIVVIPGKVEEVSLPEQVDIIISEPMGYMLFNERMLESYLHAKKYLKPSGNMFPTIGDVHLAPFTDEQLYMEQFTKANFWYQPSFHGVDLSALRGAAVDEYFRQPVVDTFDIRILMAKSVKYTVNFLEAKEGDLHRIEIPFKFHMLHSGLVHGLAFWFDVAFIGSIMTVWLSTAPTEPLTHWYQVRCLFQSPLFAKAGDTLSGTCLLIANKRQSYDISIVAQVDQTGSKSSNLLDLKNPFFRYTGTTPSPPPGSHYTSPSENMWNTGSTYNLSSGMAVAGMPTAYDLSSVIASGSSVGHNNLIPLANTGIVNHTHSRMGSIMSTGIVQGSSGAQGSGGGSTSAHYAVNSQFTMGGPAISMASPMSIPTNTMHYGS

ICAM-1 = ICAM-1 level, protein chip assay; type: in vivo, mouse; settings: aged 3xTg-AD female mice; cortex and hippocampus; 30 mg/kg, 7 days, IP
Description: FIGS. 19A-19F are six graphs showing PRMT4 inhibitor (TP-064) reduced ICAM-1, VCAM-1 and enhanced E-Cadherin protein levels in aged female 3xTg-AD mice. In FIGS. 19A-19D, aged 3xTg-AD female mice v. […] Adhesion molecules were assessed via protein chip assay in the cortex and hippocampus. * p<0.05 evaluated by one-way ANOVA with Tukey's post-hoc analyses.

NO3+NO2 = assay: Nitrate/Nitrite colorimetric assay (Griess reaction) of whole brain; type: in vivo, mouse; settings: 3xTg-AD mice; 30 mg/kg, IP, 7 days
Description: Nitrate/Nitrite colorimetric assay: Following euthanasia, whole brains were dissected from mice. Cold (4 °C) phosphate-buffered saline (PBS) and glass tissue grinders were used to homogenize the whole brain. Homogenates were centrifuged at 10,000×g for 20 min at 4° C. The supernatant was collected and filtered using 10 kDa ultrafilter (Cat. No. […]010, Millipore, Burlington, VA). Nitrate and nitrite were quantified per manufacturer's instructions (Cat. No. 780001, Cayman Chemical, Ann Arbor, MI). In summary, 80 μL of supernatant was loaded into a 96-well plate with 10 μL enzyme cofactor, and 10 μL nitrate reductase. Following 3 hrs of incubation, 100 μL Griess reagent was added, and plate was incubated for 30 min. The standard curve was provided by the manufacturer, and all sample concentrations were determined from the standard curve values. Changes in absorbance were measured at 550 nm. Final nitrate/nitrite levels were expressed in μM concentration.

Compound: CNCCN1CCC(c2cc(CN(C)C(=O)c3cccc(Oc4ccccc4)c3)ccn2)CC1 [TP-064, N-Methyl-N-((2-(1-(2-(methylamino)ethyl)piperidin-4-yl)pyridin-4-yl)methyl)-3-phenoxybenzamide]
- GFAP level in cortex (GFAP): reduced
- GFAP level in hippocampus (GFAP): reduced
- NOTCH1 protein level in cortex (NOTCH1): enhanced
- NOTCH1 protein level in hippocampus (NOTCH1): enhanced
- methylation of H3 (1-25) and MED12 [1]: inhibits
- selectivity over other histone methyltransferases and non-epigenetic targets (PRMT4): > 100 fold
- ICAM-1 level (ICAM-1): decreased
- total NO3+NO2 in whole-brain lysate (NO3+NO2): 3.90 ± 0.667 µM
